Series [1] relates to C. elegans infected with MRSA strain MW2. The series is classed as in vivo. The settings on record: for C. elegans animals surviving MRSA infection: concentrations above the MIC. The procedure:
The C. elegans-MRSA liquid infection assay has been described (Rajamuthiah et al. Plos One. 2014; 9(2):e89189). In brief, 4,500 glp-4 (bn2); sek-1(km4) L1 hatchlings were grown on SK-HB101 agar plates for 52 hours at the restrictive temperature of 25° C. until animals became sterile young adults and later harvested with M9 buffer. S. aureus MW2 was grown overnight at 37° C. in TSB, first under aerobic conditions and later shifted to anaerobic growth conditions at 37° C. The infection assay was performed in standard 384-well assay plates, in the presence of the compound being tested or 1% dimethyl sulfoxide (DMSO) as a control. Bacteria were added to the wells at a final OD600 of 0.06, followed by the use of a Complex Object Parametric Analyzer and Sorter (COPAS) large particle sorter (Union Biometrica, Holliston, Mass., USA) to transfer 15 adult worms to each well of an assay plate. After 5 days of incubation in a humidified chamber at 25° C., the bacteria and other debris were washed from the wells with a microplate washer and the worms were stained with the vital dye Sytox Orange (Life Technologies). After overnight incubation at 25° C. in a humidified chamber, the plates were imaged using an Image Xpress Micro automated microscope (Molecular Devices, Sunnyvale, Calif., USA), capturing both transmitted light and TRITC (535 nm excitation, 610 nm emission) fluorescent images with a 2× objective. The images from the infection assay were processed using the open source image analysis software CellProfiler and analysis modules as described previously. The ratio of Sytox worm area to bright field worm area, and the resultant percentage survival data, is calculated by the software for each well of the assay plates. The assay was performed in triplicate comparing the survival of worms at various concentrations of drugs.
Killing assays were carried out as described in Methods using S. aureus MRSA MW2 and 10 μg/ml retinoids, 10 μg/ml vancomycin (positive control), or 1% DMSO (negative control) at 25° C. for 5 days. Data are representative of three independent experiments. (B) Chemical structures of synthetic retinoids. (C) Growth of MRSA strain MW2 exposed to the indicated concentrations of compounds was quantified by measuring OD600 after 18 h in tryptic soy broth (TSB). (D) C. elegans infected with MRSA strain MW2 was treated with indicated concentrations of compounds. Percent survival of C. elegans was normalized to C. elegans treated with DMSO. (E-F) MRSA persisters prepared as described in Methods were treated with the indicated concentrations of each retinoid. Viability was measured by serial dilution and plating on TSA plates. The data points on the x-axis are below the level of detection (2×10^2 CFU/ml). (E,F) Results are shown as means±s.d.; n=3.

The test system of the next series is S. aureus MW2. The series is classed as cell-based, Staphylococcus aureus. The conditions noted are these: for fold increase in resistance: mutations in graS, yjbH, and manA; for fold increased resistance of CD437-resistant mutants: presumptive CD437-resistant SP1/SP2 mutants. The procedure:
Development of resistant mutants by serial passage was conducted as previously described (Friedman, L. et al. Genetic changes that correlate with reduced susceptibility to daptomycin in Staphylococcus aureus. Antimicrob. Agents Chemother. 2006, 50, 2137-2145). […] The extended gradient was created by 2-fold serial dilutions with cation-adjusted Muller-Hinton media (CaMH) from three different starting concentrations: 80, 96, and 128 μg/ml. […] After incubating the plate at 37° C. for 24 h, OD600 nm was measured by a spectrophotometer (SpectraMax M2, Molecular Devices). Bacterial growth was defined as OD600 nm≥0.1. Two μl of the bacterial culture at the highest drug concentration that permitted bacterial growth was diluted 1,000-fold in CaMH, and the diluted culture was used as inoculum for the next passage. The rest of the culture was stored in 16% glycerol at −80° C.
Sequencing of PCR products were conducted by GENEWIZ (South Plainfield, N.J., USA). The passage day when the mutations occurred was identified by colony PCR using three colonies from each glycerol freezer stock, followed by sequencing of the PCR products. The passage day when the susceptibility to the retinoids changed was identified by repeating MIC determinations using overnight cultures from three colonies from each glycerol freezer stock.

A short description of series [2]: Giant unilamellar vesicles (GUVs) disruption. The conditions noted are these: DOPC/DOPG 7:3; 1× and 10×MIC; result in words.
The next series relates to human erythrocytes. The experiment in a line: Human blood hemolysis. The format is cell-based. The settings on record: increasing concentrations; result in words.
The target of a further series is T1, hERG potassium channel (Homo sapiens, UniProt Q12809).
T1 construct: host or cells: Chinese hamster ovary (CHO) cells
Briefly: hERG potassium channel inhibition (IonWorks HT, CHO cells). The conditions noted are these: at 25 μM. The series is classed as cell-based. As for the experimental part:
Evaluation of human ether-a-go-go-related gene (hERG) potassium channel inhibition potential. […] Electrophysiology measurement was conducted using an IonWorks™ HT instrument (Molecular Devices Corporation, Sunnyvale, Calif., USA) and 384-well planar PatChPlate™ (Molecular Devices Corporation). Briefly, Chinese hamster ovary (CHO) cells expressing the hERG potassium channel were dispensed into 384-well planar arrays, and hERG tail currents were measured by whole-cell voltage clamping. A range of concentrations (0.008 μM to 25 μM) of each retinoid were then added to the cells, and a second recording of the hERG current was made. The percent change in the hERG current was calculated.

A further series deals with E. faecalis. The experiment in a line: MIC, broth microdilution. The format is cell-based, Enterococcus faecalis. The conditions noted are these: for MIC: Enterococcus faecalis, E. faecalis, (range given for E. faecium and E. faecalis); for susceptibility of E. faecalis: result in words. The procedure:
To test the bacterial MICs for compounds described herein, the total volume in each well was 100 μl of test compounds and bacterial cells in MH broth. Two-fold serial dilutions were carried out to get compounds in the concentration range 0.0625-64 μg/ml. The bacterial concentration was adjusted to an initial OD600 of 0.03. After incubation at 35° C. for 18 hrs, the absorbance was measured at 595 nm in accordance with CLSI document M07-A8. The MICs of antibiotics were determined by the standard microdilution method recommended by the Clinical and Laboratory Standards Institute.
(In general: In broth dilution the organism is exposed to a series of concentrations in liquid medium.)

The subject of a further series is S. aureus. The experiment in a line: Disc clearing assay. The format is cell-based, Staphylococcus aureus. The settings on record: result in words. As for the experimental part: Disc clearing assay: The disc diffusion test was performed on Mueller Hinton (MH) agar plates for bacterial cultures and yeast extract, peptone, dextrose (YPD) for fungal cultures. The assay was repeated 3 times. Discs were soaked in 10 μl of either DMSO or 10 mg/ml compound stock solution and air-dried. Three hundred microliters of an overnight culture of bacteria or fungi were spread on plates. After completely drying the agar plate in a laminar flow hood, DMSO or compound impregnated discs were overlaid on the plate and incubated at 35° C. for 18 hrs.
The disc diffusion test was carried out in triplicate on cation-adjusted Miller-Hinton agar. 6 mm discs were impregnated with 50 μg of compounds and air-dried. Three hundred microliters of an overnight S. aureus MW2 culture was spread on an agar plate and air-dried. The antimicrobial discs were overlaid on the plate and incubated at 37° C. for 20 hrs.

Each structure is given as a SMILES string. ≈ marks a conversion by molar mass, not a printed value.

T1 sequence (Q12809 whole entry): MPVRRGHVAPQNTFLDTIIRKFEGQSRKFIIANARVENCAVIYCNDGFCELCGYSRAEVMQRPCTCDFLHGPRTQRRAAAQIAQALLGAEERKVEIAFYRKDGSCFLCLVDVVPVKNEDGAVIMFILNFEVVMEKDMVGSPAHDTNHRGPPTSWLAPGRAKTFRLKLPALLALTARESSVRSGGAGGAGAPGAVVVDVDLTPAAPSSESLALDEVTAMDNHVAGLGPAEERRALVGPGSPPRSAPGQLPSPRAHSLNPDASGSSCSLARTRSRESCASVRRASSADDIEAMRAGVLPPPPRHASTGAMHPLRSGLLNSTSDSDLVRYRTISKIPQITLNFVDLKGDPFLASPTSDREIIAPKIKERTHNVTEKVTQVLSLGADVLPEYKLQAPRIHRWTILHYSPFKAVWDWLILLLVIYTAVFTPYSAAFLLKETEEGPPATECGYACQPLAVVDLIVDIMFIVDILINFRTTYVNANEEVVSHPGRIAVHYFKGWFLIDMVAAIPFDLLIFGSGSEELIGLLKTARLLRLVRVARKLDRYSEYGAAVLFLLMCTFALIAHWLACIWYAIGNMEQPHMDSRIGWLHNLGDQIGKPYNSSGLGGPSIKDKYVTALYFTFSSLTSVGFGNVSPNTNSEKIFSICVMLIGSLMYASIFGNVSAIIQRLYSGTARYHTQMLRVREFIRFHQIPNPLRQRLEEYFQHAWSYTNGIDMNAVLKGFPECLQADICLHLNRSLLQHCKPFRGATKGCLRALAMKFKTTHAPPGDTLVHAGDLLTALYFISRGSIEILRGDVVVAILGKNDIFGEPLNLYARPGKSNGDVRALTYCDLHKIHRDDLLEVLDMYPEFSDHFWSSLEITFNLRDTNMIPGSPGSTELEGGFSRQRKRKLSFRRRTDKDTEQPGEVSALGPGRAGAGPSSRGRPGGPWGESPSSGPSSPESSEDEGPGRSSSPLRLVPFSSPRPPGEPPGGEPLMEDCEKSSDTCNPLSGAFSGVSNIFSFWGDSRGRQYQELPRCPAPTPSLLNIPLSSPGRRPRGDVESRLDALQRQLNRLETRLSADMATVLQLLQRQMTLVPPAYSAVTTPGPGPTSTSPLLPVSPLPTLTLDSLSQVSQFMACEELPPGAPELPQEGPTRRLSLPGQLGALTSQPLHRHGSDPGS
Description for human erythrocytes: Human blood hemolysis. Hemolytic activity of retinoids on human erythrocytes was evaluated using a previously described method with modifications (Rajamuthiah, R. et al. A defensin from the model beetle Tribolium castaneum acts synergistically with telavancin and daptomycin against multidrug resistant Staphylococcus aureus. PLoS ONE 10, e0128576 (2015)). 10% human erythrocytes were purchased from Rockland Immunochemicals (Limerick, Pa., USA). The erythrocytes were diluted to 4% with PBS, and 100 μl was added to 100 μl of two-fold serial dilutions of compounds in PBS, 0.2% DMSO (negative control), or 2% Triton-X 100 (positive control) in a 96-well plate. The 96-well plate was incubated at 37° C. for 1 h and then centrifuged at 500×g for 5 min. 100 μl of the supernatant was transferred to a fresh 96-well plate, and absorbance of supernatants was measured at 540 nm. Percent hemolysis was calculated using the following equation: (A540 nm of compound treated sample—A540nm of 0.1% DMSO treated sample)/(A540 nm of 1% Triton X-100 treated sample—A540nm of 0.1% DMSO treated sample)×100. HC50 (concentration of a compound causing 50% hemolysis) was determined using SigmaPlot 10.0 (Systat Software Inc., San Jose, Calif., USA).
In a 96 well plate, 50 μl of 2% human erythrocytes suspended in PBS was added to 50 μl of compounds serially diluted in PBS and incubated at 37° C. for 1 hour. The plate was then centrifuged at 500 G for 5 minutes and 50 μl of the supernatant from each well of the assay plate was transferred to a fresh 96 well plate. Hemolysis was confirmed by both visual observation and measuring absorbance at 540 nm. Treatment was conducted in triplicate.
2% human erythrocytes were treated with two-fold serially diluted concentration of the retinoids for 1 h at 37° C. A sample treated with 1% Triton-X 100 was used as the control for 100% hemolysis. Results are shown as means±s.d.; n=3.

Take `O=C(O)/C=C/c1ccc(-c2ccc(O)c(C34CC5CC(CC(C5)C3)C4)c2)cc1` [Adarotene, (2E)-3-(4′-Hydroxy-3′-tricyclo[3.3.1.13,7]dec-1-yl[1,1′-biphenyl]-4-yl)-2-propenoic acid]: the “rescue of C. elegans from MRSA infection” value in series [1] (result in words) is “rescued”. For the same compound, in the series with S. aureus MW2, the “fold increase in resistance” value turned out to be 1.5 fold and the “fold increased resistance of CD437-resistant mutants” value turned out to be 2 fold. In series [2], the “integrity of giant unilamellar vesicles (GUVs)” value was “disrupt the integrity”. Besides, the “toxicity (hemolysis) to erythrocytes” value in the series on human erythrocytes was “not toxic”. Also, at hERG potassium channel, the “inhibition of hERG potassium channels” value was “did not inhibit”.
As usually defined, the MIC is the lowest concentration that inhibits growth of the organism. Low readings indicate greater potency, high ones weaker potency. `O=C(O)c1ccc2cc(-c3ccc(O)c(C45CC6CC(CC(C6)C4)C5)c3)ccc2c1` [CD437, 6-(4-hydroxy-3-tricyclo[3.3.1.13,7]dec-1-ylphenyl)-2-naphthalenecarboxylic acid]: in the series on E. faecalis, the MIC was in the range of 2 to 4 µg/mL (≈ 5.02 to 10 µM) and the “susceptibility of E. faecalis” value is reported as “susceptible”. The “zone of inhibition, S. aureus” value with S. aureus is “inhibits the growth”. Moreover, the “C. elegans animals surviving MRSA infection” value in series [1] stood at 100%.
On to `O=C(O)c1ccc(-c2ccc3cc(O)c(C45CC6CC(CC(C6)C4)C5)cc3c2)cc1` [CD1530, 4-(6-hydroxy-7-tricyclo[3.3.1.13,7]dec-1-yl-2-naphthalenyl)-benzoic acid], for which, in the series on E. faecalis, the MIC was in the range of 2 to 4 µg/mL (≈ 5.02 to 10 µM) and the “susceptibility of E. faecalis” value is recorded as “susceptible”. For the same compound, the “C. elegans animals surviving MRSA infection” value in series [1] was found to be 100%. Moreover, the “toxicity to C. elegans” value in series [1] (up to 50 μg/ml) is listed as “nontoxic”. Besides, in the series with S. aureus MW2, the “fold increase in resistance” value is recorded as 1.5 fold and the “fold increased resistance of CD437-resistant mutants” value was determined as 2 fold. Besides, the “integrity of giant unilamellar vesicles (GUVs)” value in series [2] is on record as “disrupt the integrity”. For the same compound, the “toxicity (hemolysis) to erythrocytes” value in the series with human erythrocytes is recorded as “not toxic”. The “inhibition of hERG potassium channels” value on hERG potassium channel is “did not inhibit”.

Values taken from patent US11707442B2, “Antibacterial and antifungal compounds” (The General Hospital Corporation, priority 2015, dated 2023).
